Assay results reported in paper PMC9387325, “New quinoline and isatin derivatives as apoptotic VEGFR-2 inhibitors: design, synthesis, anti-proliferative activity, docking, ADMET, toxicity, and MD simulation studies” (Journal of Enzyme Inhibition and Medicinal Chemistry, 2022).

Assays:
[1] = tested on: Caco-2; assay: In vitro anti-proliferative activity (MTT assay); assay type: cell-based, human; details: for IC50: Homo sapiens, Caco-2, mean of three replicates
Experimental: (§1) To assess the antiproliferative effects of the targeted candidates, an MTT assay[29–31] was performed against four cancer cell lines: lung carcinoma epithelial (A549), colon cancer (Caco-2), hepatocellular cancer (HepG2), and breast cancer (MDA-MB-231).
(§2) Anti-proliferative activities were assessed using the MTT assay[31]^,[46] and were explained intensely in Supplementary data. […]
(§3) a- Mammalian cell lines culture
(§4) Lung carcinoma epithelial (A549), colon cancer (Caco-2)cell lines were cultured on DMEM media, meanwhile hepatocellular cancer (HepG2), and breast cancer (MDA-MB-231) cell lines were cultured on RBMI media. The cultured media were supplement ed with 200 mM L-glutamine, 10.0% fetal bovine serum (Lonza), and 1.0% penicillin/streptomycin. Cells were seeded into 25.0 cm tissue culture flasks and incubated at 37 ◦C in a 5.0% CO2 incubator for 24 h or till confluency.
(§5) The safety profiles of the tested compounds were checked on one non-cancerous cell line (Vero) to […]
(§6) of 100.0 µl of 6×10^4 cell/ml cells was seeded in to each well of a 96-well plate and then the plates were incubated at 37 °C in a humidified 5.0% CO2 incubator for 24 h. At the end of incubation period, the exhausted medium was replaced with 100.0 µl of different concentrations of the designated treatment (prepared in RPMI medium starting from 1.0 mM). The inoculated plates were incubated at the same growth conditions for another 24 h. At the end of incubation, cellular viability was assessed using MTS assay kit (Promega) according to the manual instruction. c- In-vitro anticancer activity
(§7) Anticancer activities of the tested compounds against lung carcinoma epithelial (A549), colon cancer (Caco-2), hepatocellular cancer (HepG2), and breast cancer (MDA-MB-231) cell lines were quantified using MTS assay kit (Promega) as described by the Manufacturer. d- Selectivity index (SI)
(§8) The selectivity index values of the tested compounds on cancer cells were calculated as described by Koch et al., with slight modifications; SI=IC50nc/IC50cc, where IC50nc: the IC50 value of the tested compound on normal cells and IC 50cc: IC50 of the tested compound on cancer cell line . […]

[2] = In vitro anti-proliferative activity (MTT assay); assay type: cell-based, human; details: African green monkey (Vero) / human (Caco-2); IC50 on normal (Vero) cells / IC50 on Caco-2; read-out: Selectivity index Caco-2
Experimental: as §1, §2, §3, §4, §5, §6, §7, §8

[3] = molecular target: T1, VEGFR-2 (Homo sapiens, UniProt P35968); assay: In vitro VEGFR-2 kinase assay (VEGFR-2 ELISA kit); assay type: biochemical; details: for HillSlope (best-fit value), VEGFR-2 inhibition / LogIC50 (best-fit value), VEGFR-2 inhibition: dose-response fit, supplement; for IC50: mean of three replicates, read-out: VEGFR-2 inhibitory activity IC50
T1 construct: purchased
T1 sequence (P35968 20-1356): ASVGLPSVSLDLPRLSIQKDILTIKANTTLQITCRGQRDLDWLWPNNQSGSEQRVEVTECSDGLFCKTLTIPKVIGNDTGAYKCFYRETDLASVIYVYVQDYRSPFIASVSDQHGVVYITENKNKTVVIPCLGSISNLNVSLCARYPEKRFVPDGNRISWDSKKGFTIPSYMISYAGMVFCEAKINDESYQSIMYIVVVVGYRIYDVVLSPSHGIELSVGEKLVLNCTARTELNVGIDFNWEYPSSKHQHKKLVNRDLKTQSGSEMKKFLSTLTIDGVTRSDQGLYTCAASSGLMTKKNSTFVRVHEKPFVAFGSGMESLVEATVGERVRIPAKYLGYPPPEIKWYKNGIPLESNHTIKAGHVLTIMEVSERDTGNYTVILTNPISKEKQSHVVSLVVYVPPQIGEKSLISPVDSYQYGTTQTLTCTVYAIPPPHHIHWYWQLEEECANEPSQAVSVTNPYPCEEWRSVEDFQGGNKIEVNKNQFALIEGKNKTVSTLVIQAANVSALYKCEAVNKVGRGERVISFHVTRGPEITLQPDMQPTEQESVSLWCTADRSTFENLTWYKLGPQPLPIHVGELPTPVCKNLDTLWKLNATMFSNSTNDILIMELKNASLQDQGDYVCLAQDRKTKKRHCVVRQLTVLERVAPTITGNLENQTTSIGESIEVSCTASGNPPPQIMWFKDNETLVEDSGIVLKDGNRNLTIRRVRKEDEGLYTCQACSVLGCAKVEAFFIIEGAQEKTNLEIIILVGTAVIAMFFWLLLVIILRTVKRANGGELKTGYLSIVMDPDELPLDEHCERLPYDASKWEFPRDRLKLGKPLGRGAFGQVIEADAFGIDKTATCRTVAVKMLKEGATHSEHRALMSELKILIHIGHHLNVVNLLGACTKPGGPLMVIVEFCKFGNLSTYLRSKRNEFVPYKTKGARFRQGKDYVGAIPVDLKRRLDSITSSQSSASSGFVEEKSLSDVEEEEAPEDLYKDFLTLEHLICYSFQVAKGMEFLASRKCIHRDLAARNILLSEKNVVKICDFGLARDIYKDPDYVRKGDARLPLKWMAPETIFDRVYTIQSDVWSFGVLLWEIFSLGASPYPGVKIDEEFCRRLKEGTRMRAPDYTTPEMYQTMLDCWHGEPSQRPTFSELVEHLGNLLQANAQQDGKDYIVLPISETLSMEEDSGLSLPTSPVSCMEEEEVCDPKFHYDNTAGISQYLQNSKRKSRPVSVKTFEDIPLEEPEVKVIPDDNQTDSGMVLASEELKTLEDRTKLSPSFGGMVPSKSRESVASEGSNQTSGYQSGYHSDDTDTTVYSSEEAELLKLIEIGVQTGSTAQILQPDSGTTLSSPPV
Experimental: As the main target in this work is the design and synthesis of promising VEGFR-2 inhibitors, we subjected the synthesised compounds to in vitro VEGFR-2 inhibitory assay to assess the ability of these compounds to obstacle the kinase activity of VEGFR-2.
Was tested using a VEGFR-2 ELISA kit and was explained intensely in Supplementary data[47].

[4] = tested on: Caco-2 cells; assay: Flow cytometric cell cycle analysis; assay type: cell-based, human; details: Caco-2, 90 µM, 24 h
From the text: Employing the flowcytometry technique, the cell cycle pattern of the untrated Caco-2 cancer cells (Figure 6(A)) was compared with that of the treated cells with compound 7.

[5] = tested on: HepG2; assay: In vitro anti-proliferative activity (MTT assay); assay type: cell-based, human; details: for IC50: Homo sapiens, HepG2, HepG-2, mean of three replicates; for Selectivity index HepG2: IC50 on normal (Vero) cells / IC50 on HepG2
Experimental: as §2, §3
(§9) Lung carcinoma epithelial (A549), colon cancer (Caco-2)cell lines were cultured on DMEM media, […]
(§10) RBMI media. The cultured media were supplement ed with 200 mM L-glutamine, 10.0% fetal bovine serum (Lonza), and 1.0% penicillin/streptomycin. Cells were seeded into 25.0 cm tissue culture flasks and incubated at 37 ◦C in a 5.0% CO2 incubator for 24 h or till confluency.
as §5, §6
(§11) Anticancer activities of the tested compounds against lung carcinoma epithelial (A549), colon cancer […]
(§12) quantified using MTS assay kit (Promega) as described by the Manufacturer. d- Selectivity index (SI)
as §8

[6] = tested on: A549; assay: In vitro anti-proliferative activity (MTT assay); assay type: cell-based, human; details: for IC50: Homo sapiens, A549, mean of three replicates; for Selectivity index A549: IC50 on normal (Vero) cells / IC50 on A549
Experimental: as §2, §3, §9, §10, §5, §6, §11, §12, §8

[7] = tested on: MDA-MB-231; assay: In vitro anti-proliferative activity (MTT assay); assay type: cell-based, human; details: for IC50: Homo sapiens, MDA-MB-231, MDA-MB231, mean of three replicates; for Selectivity index MDA-MB231: IC50 on normal (Vero) cells / IC50 on MDA-MB231
Experimental: as §2, §3, §9, §10, §5, §6, §11, §12, §8

[8] = Cytotoxicity against normal cells (safety assay); assay type: cell-based; details: African green monkey, Vero cells (non-cancerous cell line)
Experimental: The cytotoxic activities of the synthesised against normal cells were evaluated against the Vero cell line utilising an MTT assay.
The safety profiles were examined on Vero cells (non-cancerous cell line) and was explained intensely in Supplementary data[48]. […]
a- Mammalian cell lines culture […]
as §10, §5
as §6, with “c- In-vitro anticancer activity” left out

[9] = tested on: Caco-2 cells; assay: Wound healing assay (migration assay); assay type: cell-based, human
Experimental: In this test, Caco-2 cells were allowed to grow then, a wound was formed on the cell layer. Next, the cells were incubated with the sub IC50 dose of compound 7. The results of wound healing were compared to the untreated cell line. Figure 4 illustrates the degree of wound healing caused by compound 7 compared to the control cells.
Was performed as the described protocol[50] and was explained intensely in Supplementary data. […]
as §3
Lung carcinoma epithelial (A549), colon cancer (Caco-2)cell lines were cultured on DMEM media, meanwhile hepatocellular cancer (HepG2), and breast cancer (MDA-MB-231) cell lines were cultured on RBMI media. […]
of 100.0 µl of 6×10^4 cell/ml cells was seeded in to each well of a 96-well plate and then the plates were incubated at 37 °C in a humidified 5.0% CO2 incubator for 24 h. […] At the end of incubation, cellular viability was assessed using MTS assay kit (Promega) according to the manual instruction. c- In-vitro anticancer activity
Anticancer activities of the tested compounds against lung carcinoma epithelial (A549), colon cancer (Caco-2), hepatocellular cancer (HepG2), and breast cancer (MDA-MB-231) cell lines were quantified using MTS assay kit (Promega) as described by the Manufacturer. d- Selectivity index (SI) […]

[10] = tested on: TGF; assay: RT-qPCR gene expression in Caco-2 cells; assay type: cell-based, human; details: Caco-2, 90 µM, 24 h
Experimental: (§13) RT-qPCR technique was applied to assess the expression levels of Bcl2, Bcl-xl, Survivin, and TGF in Caco-2 cells after treatment with compound 7 for 24 h. […] On the other hand, such a compound produced an upregulation effect of the TGF gene.
(§14) Bcl2, Bcl-xl, TGF and Survivin genes levels were evaluated as reported[51] and was explained intensely in Supplementary data. […]
(§15) f- Gene expression pattern alternation of cancer cell after treatment with compound 7.
(§16) The molecular anticancer mode of action of 7 was investigated by screening their ability to affect the gene expression levels of Bcl2, Bcl-xl, TGF and Survivin genes using specific forward and reverse primers and RTq-PCR technique (Table 1) in CaCo-2 cells (chosen as the most sensitive cancer cell line). After cellular treatment, CaCo-2 cell line was cultured into 12 well plates (6×10^3 cell/ml) for 24 h. with the sub -IC50 concentration of 7. After treatment, total RNA extraction was performed using RNA extraction kit (Qiagen, Germany). Then, 1 ug of the obtained RNA was used to synthesiz cDNA using cDNA synthesis kit (Promega Corp., Madison, WI) as recommended by the manufacturer . Simultaneously, GAPDH forward and reverse primers (Table 1) were used to amplify the house keeping gene as internal control for standardization of PCR products. The RTq -PCR was done using SYBR Green dye (QuantiTect SYBR Green PCR Kits) and Light Cycler fluorimeter (Bio-RAD S1000 Tm thermal cycler). The PCR cycling program was as follows: 95 °C for 2 min, followed by 40 cycles of 95 °C for 30s, 55 °C for 30 s, and 60 °C for 45s, and finally 60 °C for 5 min. […]

[11] = tested on: Survivin; assay: RT-qPCR gene expression in Caco-2 cells; assay type: cell-based, human; details: Caco-2, 90 µM, 24 h
Experimental: as §13, §14, §15, §16

[12] = tested on: Bcl2; assay: RT-qPCR gene expression in Caco-2 cells; assay type: cell-based, human; details: Caco-2, 90 µM, 24 h
Experimental: as §13, §14, §15, §16

[13] = tested on: Bcl-xl; assay: RT-qPCR gene expression in Caco-2 cells; assay type: cell-based, human; details: Caco-2, 90 µM, 24 h
Experimental: as §13, §14, §15, §16

SMILES | IC50 [1] [µM] | selectivity ratio [2] | HillSlope (best-fit value), VEGFR-2 inhibition [3] | LogIC50 (best-fit value), VEGFR-2 inhibition [3] | IC50 [5] [µM] | Selectivity index HepG2 [5] | IC50 [6] [µM] | Selectivity index A549 [6] | IC50 [7] [µM] | Selectivity index MDA-MB231 [7] | IC50 at 24 h [8] [µM] | IC50 [3] [µM] | other results
COc1ccc2[nH]c(=O)c(/C=C3\SC(=O)N(CC(=O)Nc4ccccc4)C3=O)cc2c1 [Compound 7, (Z)-2–(5-((6-Methoxy-2-oxo-1,2-dihydroquinolin-3-yl)methylene)-2,4-dioxothiazolidin-3-yl)-N-phenylacetamide] | 93.5 ± 0.71 | 4.71 | -0.4960 | 2.138 Log (nM) | 150 ± 7.07 | 2.93 | 159 ± 14 | 2.77 | 122 ± 7.01 | 3.59 | 440 ± 14.1 |  | cell cycle arrest [4]: cellular arrest in sub G0 (Apoptotic phase); cell population in S phase ([4]; untreated 24.7%): 13.1%; cell population in G0/G1 phase ([4]; untreated 51.7%): 46.4%; diameter of the wound, treated cells (Figure 4A) ([9]; Caco-2, 90 µM, time not stated): 0.3058 mm; effect on wound healing ([9]; Caco-2, sub IC50 dose (90 µM)): prevent wound healing; Relative expression of TGF gene [10]: upregulation; Relative expression of Survivin gene [11]: down-regulating; Relative expression of Bcl2 gene [12]: down-regulating; Relative expression of Bcl-xl gene [13]: down-regulating
COc1ccc(NC(=O)CN2C(=O)S/C(=C\c3cc4cc(OC)ccc4[nH]c3=O)C2=O)cc1 [Compound 8, (Z)-2–(5-((6-Methoxy-2-oxo-1,2-dihydroquinolin-3-yl)methylene)-2,4-dioxothiazolidin-3-yl)-N-(4-methoxyphenyl)acetamide] | 190 ± 9.11 | 0.79 | -0.3463 | 2.272 Log (nM) | 134 ± 1.41 | 1.12 | 196 ± 70 | 0.77 | 130 ± 5.6 | 1.15 | 150 ± 14.1 | 0.187 | 
COc1ccc2[nH]c(=O)c(/C=C3\SC(=O)N(CC(=O)Nc4ccccc4C)C3=O)cc2c1 [Compound 9, (Z)-2–(5-((6-Methoxy-2-oxo-1,2-dihydroquinolin-3-yl)methylene)-2,4-dioxothiazolidin-3-yl)-N-(o-tolyl)acetamide] | 167 ± 4.2 | 1.17 | -0.5262 | 1.994 Log (nM) | 145 ± 3.5 | 1.35 | 51 ± 4.2 | 3.84 | 188 ± 7.01 | 1.04 | 196 ± 2.8 | 0.0985 | times as active as sorafenib ([3]; VEGFR-2 inhibition): 0.54 times
COc1ccc(NC(=O)CN2C(=O)S/C(=C3\C(=O)Nc4ccccc43)C2=O)cc1 [Compound 14] | 5.7 ± 0.07 |  |  |  | 149 ± 7.01 |  | 54 ± 1.4 |  | 9 ± 0.51 |  | 30 ± 1.35 | 0.0859 | times as active as doxorubicin ([1]; Caco-2 cells): 1.44 times
COc1cccc2c1C(=O)c1c(O)c3c(c(O)c1C2=O)C[C@@](O)(C(=O)CO)C[C@@H]3O[C@H]1C[C@H](N)[C@H](O)[C@H](C)O1 [Doxorubicin, reference compound] | 8.2 ± 0.21 | 3.05 |  |  | 2.8 ± 0.07 | 8.93 | 7 ± 0.22 | 3.57 | 9 ± 0.77 | 2.78 | 25 ± 1.41 |  | 
